According to patent US10668047B2, “Aziridine containing DNA alkylating agents” (priority 2015, dated 2020):
Read-outs that look alike come from different tables or passages of the source.

System: H460 non-cell lung cancer human tumor cell line
Test: In vitro human tumor cell line cytotoxicity (proliferation) assay, AlamarBlue
Assay type: cell-based
Procedure: IC50 values are reported in micromolar and result from exposure of compound at various concentrations for 2 hrs followed by a wash step and addition of fresh media followed by growth and cell viability staining and comparison to a media only treated control.
Specifically, exponentially growing cells are seeded at a density of 4×10^3 cells per well in a 96 well plate and incubated at 37° C. in 5% CO2, 95% air and 100% relative humidity for 24 hours prior to addition of test compounds. Compounds are solubilized in 100% DMSO at 200 times the desired final test concentration. At the time of drug addition, compounds are further diluted to 4 times the desired final concentration with complete medium. Aliquots of 50 μl of compound at specified concentrations are added to microtiter wells already containing 150 μl of medium, resulting in the final drug concentration reported. After drug addition, the plates are incubated for an additional 2 hours at 37° C., 5% CO2, 95% air, and 100% relative humidity, then the drug is washed off and fresh medium is added and the plates are incubated for addition 70 hrs at 37° C., 5% CO2, 95% air and 100% relative humidity. At the end of this incubation, the viable cells are quantified using the AlamarBlue assay. The drug concentration resulting in growth inhibition of 50% (IC50) is calculated using Prism software (Irvine, Calif.), and the results are listed in the table.

[1] = Homo sapiens, NCI-H460, H460 cells, under air, 2 hrs exposure, wash, then 70 hrs growth, read-out: IC50 (air)
[2] = Homo sapiens, NCI-H460, H460 cells, under nitrogen, 2 hrs exposure, wash, then 70 hrs growth, read-out: IC50 (N2)
[3] = H460 cells, under air, 2 hrs exposure, wash, then 70 hrs growth, read-out: IC50 (air)
[4] = H460 cells, under nitrogen, 2 hrs exposure, wash, then 70 hrs growth, read-out: IC50 (N2)
[5] = Homo sapiens, NCI-H460, read-out: IC50 (N2), H460 cells, under nitrogen, 2 hrs exposure, wash, then 70 hrs growth
[6] = Homo sapiens, NCI-H460, read-out: IC50 (air), H460 cells, under air, 2 hrs exposure, wash, then 70 hrs growth

Row | SMILES | IC50 [1] [nM] | IC50 [2] [nM] | also measured
1 | Cn1c([N+](=O)[O-])cnc1COP(=O)(N1CC1)N1CC1 [compound 2136] | 24000 | 100 | –
2 | CC(C)C(OP(=O)(N1CC1)N1CC1)c1ncc([N+](=O)[O-])n1C(C)C (centres unmarked) [compound 2604] | 320000 | 700 | –
3 | CC(OP(=O)(N1CC1)N1CC1)c1ncc([N+](=O)[O-])n1C (centres unmarked) [compound 2551] | – | – | IC50 [3]: 20000 nM; IC50 [4]: 100 nM
4 | CCCCn1c([N+](=O)[O-])cnc1COP(=O)(N1CC1)N1CC1 [compound 2594] | 7400 | 150 | –
5 | O=[N+]([O-])c1ccc(COP(=O)(N2CC2)N2CC2)cc1F [compound 2666] | 24000 | 2000 | –
6 | CC(OP(=O)(N1CC1)N1CC1)c1ccc([N+](=O)[O-])c(Nc2ccc([N+](=O)[O-])cc2)c1 (centres unmarked) [compound 2697] | – | – | IC50 [5]: 500 nM; IC50 [6]: 1500 nM
7 | CC(OP(=O)(N1CC1)N1CC1)c1ccc([N+](=O)[O-])c(O)c1 (centres unmarked) [compound 2621] | 39000 | 300 | –
8 | CC(OP(=O)(N1CC1)N1CC1)c1ccc([N+](=O)[O-])c(-n2cnc3ccccc32)c1 (centres unmarked) [compound 2737] | 21000 | 200 | –
9 | CC(OP(=O)(N1CC1)N1CC1)c1ccc([N+](=O)[O-])cc1 (centres unmarked) [compound 2537] | – | – | IC50 [5]: 300 nM; IC50 [6]: 53000 nM
10 | Cn1c(C(OP(=O)(N2CC2)N2CC2)C(F)(F)C(F)(F)F)cnc1[N+](=O)[O-] (centres unmarked) [compound 2128] | 18000 | 20 | –
11 | CC(OP(=O)(N1CC1)N1CC1)c1ccc([N+](=O)[O-])c(-n2cccn2)c1 (centres unmarked) [compound 2748] | 38000 | 300 | –
12 | CC(OP(=O)(N1CC1)N1CC1)c1ccc([N+](=O)[O-])c(CF)c1 (centres unmarked) [compound 2822] | 3100 | 300 | –
13 | Cc1ccccc1-c1cc(C(C)OP(=O)(N2CC2)N2CC2)ccc1[N+](=O)[O-] (centres unmarked) [compound 2800] | 30000 | 1300 | –
14 | CC(OP(=O)(N1CC1)N1CC1)c1ccc([N+](=O)[O-])c(N)c1 (centres unmarked) [compound 2692] | 6200 | 2700 | –
15 | CC(OP(=O)(N1CC1)N1CC1)c1ccc([N+](=O)[O-])c(N2CCCC[C@H]2C)c1 (some centres unmarked) [compound 2740] | 24000 | 1400 | –
16 | Cc1ccc(-c2cc(C(C)OP(=O)(N3CC3)N3CC3)ccc2[N+](=O)[O-])cc1 (centres unmarked) [compound 2789] | 36000 | 2400 | –
17 | O=[N+]([O-])c1cnc(COP(=O)(N2CC2)N2CC2)n1C1CCCC1 [compound 2635] | 13000 | 220 | –
18 | O=[N+]([O-])c1ccc(COP(=O)(N2CC2)N2CC2)c(Cl)c1 [compound 2576] | 1800 | 100 | –
19 | CCCC(OP(=O)(N1CC1)N1CC1)c1ccc([N+](=O)[O-])cc1OC (centres unmarked) [compound 2595] | 3200 | 200 | –
20 | CC(OP(=O)(N1CC1)N1CC1)c1cc(-n2cnc(CO)c2)c([N+](=O)[O-])cc1F (centres unmarked) [compound 2760] | 53000 | 2400 | –

Row | SMILES | IC50 [1] [nM] | IC50 [2] [nM] | also measured
21 | C=Cc1nc([N+](=O)[O-])n(C)c1COP(=O)(N1CC1)N1CC1 [compound 2129] | 700 | 80 | –
22 | CC(OP(=O)(N1CC1)N1CC1)c1ccc([N+](=O)[O-])c(-n2ccnc2Cl)c1 (centres unmarked) [compound 2765] | 8100 | 30 | –
23 | Cn1c([N+](=O)[O-])cnc1C(OP(=O)(N1CC1)N1CC1)C1CCCC1 (centres unmarked) [compound 2561] | 29000 | 200 | –
24 | COc1ccc(COP(=O)(N2CC2)N2CC2)c([N+](=O)[O-])c1 [compound 2589] | 9600 | 100 | –
25 | CC(OP(=O)(N1CC1)N1CC1)c1ccc([N+](=O)[O-])c(-n2cnc(CO)c2)c1 (centres unmarked) [compound 2746] | 220000 | 2600 | –
26 | CC(OP(=O)(N1CC1)N1CC1)c1ccc([N+](=O)[O-])c(N2CCC3(CC2)OCCO3)c1 (centres unmarked) [compound 2709] | 26000 | 2400 | –
27 | CC(OP(=O)(N1CC1)N1CC1)c1cc(-n2ccnc2)c([N+](=O)[O-])cc1F (centres unmarked) [compound 2731] | 13000 | 100 | –
28 | CC(C)C(OP(=O)(N1CC1)N1CC1)c1ccc([N+](=O)[O-])cc1 (centres unmarked) [compound 2572] | 29000 | 1600 | –
29 | Cn1c([N+](=O)[O-])cnc1C(OP(=O)(N1CC1)N1CC1)c1ccccc1 (centres unmarked) [compound 2542] | 3400 | 1500 | –
30 | CC(OP(=O)(N1CC1)N1CC1)c1ccc([N+](=O)[O-])c(-c2cccs2)c1 (centres unmarked) [compound 2783] | 51000 | 1700 | –
31 | CC(OP(=O)(N1CC1)N1CC1)c1ccc([N+](=O)[O-])c(-n2ccnc2)c1 (centres unmarked) [compound 2703] | – | – | IC50 [3]: 99000 nM; IC50 [4]: 200 nM
32 | CCC(CC)C(OP(=O)(N1CC1)N1CC1)c1ncc([N+](=O)[O-])n1C (centres unmarked) [compound 2609] | 370000 | 400 | –
33 | Cc1nccn1-c1cc(C(C)OP(=O)(N2CC2)N2CC2)c(F)cc1[N+](=O)[O-] (centres unmarked) [compound 2755] | 4400 | 30 | –
34 | CC(OP(=O)(N1CC1)N1CC1)c1ccc([N+](=O)[O-])c(N(C)C)c1 (centres unmarked) [compound 2680] | 110000 | 2600 | –
35 | COc1cccc([N+](=O)[O-])c1COP(=O)(N1CC1)N1CC1 [compound 2637] | 23000 | 800 | –
36 | CC(OP(=O)(N1CC1)N1CC1)c1cc(-n2cnc([N+](=O)[O-])c2)c([N+](=O)[O-])cc1F (centres unmarked) [compound 2742] | – | – | IC50 [5]: 100 nM; IC50 [6]: 3000 nM
37 | CC(OP(=O)(N1CC1)N1CC1)c1ccc([N+](=O)[O-])c(N2CCN(Cc3cnc([N+](=O)[O-])n3C)CC2)c1 (centres unmarked) [compound 2756] | – | – | IC50 [5]: 2800 nM; IC50 [6]: 45000 nM
38 | Cc1ccc(COP(=O)(N2CC2)N2CC2)c([N+](=O)[O-])c1 [compound 2590] | 15000 | 2900 | –
39 | O=[N+]([O-])c1ccc(COP(=O)(N2CC2)N2CC2)c(Br)c1 [compound 2608] | 3100 | 300 | –
40 | O=[N+]([O-])c1ccccc1COP(=O)(N1CC1)N1CC1 [compound 2578] | 28000 | 6000 | –

Row | SMILES | IC50 [1] [nM] | IC50 [2] [nM] | also measured
41 | O=[N+]([O-])c1ccccc1C(OP(=O)(N1CC1)N1CC1)c1ccccc1 (centres unmarked) [compound 2563] | 15000 | 3200 | –
42 | C=Cc1cc(C(C)OP(=O)(N2CC2)N2CC2)ccc1[N+](=O)[O-] (centres unmarked) [compound 2776] | 2500 | 400 | –
43 | C=CCCn1c([N+](=O)[O-])cnc1COP(=O)(N1CC1)N1CC1 [compound 2582] | 18000 | 100 | –
44 | CC(OP(=O)(N1CC1)N1CC1)c1ccc([N+](=O)[O-])c(NC2CC2)c1 (centres unmarked) [compound 2687] | 15000 | 2200 | –
45 | Cn1c([N+](=O)[O-])cnc1C(OP(=O)(N1CC1)N1CC1)C(F)(F)F (centres unmarked) [compound 2145] | 170000 | 400 | –
46 | CC(C)C(OP(=O)(N1CC1)N1CC1)c1ncc([N+](=O)[O-])n1CCOC(C)(C)C (centres unmarked) [compound 2643] | 37000 | 600 | –
47 | CCCCCCCC/C=C/CCCCCCCC(=O)N(C)Cc1nc([N+](=O)[O-])n(C)c1COP(=O)(N1CC1)N1CC1 [compound 2334] | 140 | 9 | –
48 | CCN(CC)c1cc(C(C)OP(=O)(N2CC2)N2CC2)ccc1[N+](=O)[O-] (centres unmarked) [compound 2701] | 66000 | 1300 | –
49 | CC(C)C(OP(=O)(N1CC1)N1CC1)c1ncc([N+](=O)[O-])n1C (centres unmarked) [compound 2567] | – | – | IC50 [3]: 270000 nM; IC50 [4]: 300 nM
50 | CC(OP(=O)(N1CC1)N1CC1)c1ccc([N+](=O)[O-])c(S(C)(=O)=O)c1 (centres unmarked) [compound 2700] | 370000 | 350000 | –
51 | CC(OP(=O)(N1CC1)N1CC1)c1ccc([N+](=O)[O-])c(-c2ccc(-c3ccccc3)cc2)c1 (centres unmarked) [compound 2790] | 4000 | 1800 | –
52 | CCCC(OP(=O)(N1CC1)N1CC1)c1ncc([N+](=O)[O-])n1C (centres unmarked) [compound 2529] | 33000 | 200 | –
53 | CC(OP(=O)(N1CC1)N1CC1)c1ccc([N+](=O)[O-])c(-n2ccnc2)c1 (centres unmarked) [compound 2803] | – | – | IC50 [3]: 150000 nM; IC50 [4]: 300 nM
54 | CC(OP(=O)(N1CC1)N1CC1)c1ccc([N+](=O)[O-])c(-c2cn(COC(=O)C(C)(C)C)nn2)c1 (centres unmarked) [compound 2793] | 4000 | 400 | –
55 | CC(OP(=O)(N1CC1)N1CC1)c1ccc([N+](=O)[O-])c(-c2ccc(C(F)(F)F)cc2)c1 (centres unmarked) [compound 2774] | 3500 | 800 | –
56 | Cn1c([N+](=O)[O-])cnc1C(Cc1ccccc1)OP(=O)(N1CC1)N1CC1 (centres unmarked) [compound 2591] | 19000 | 100 | –
57 | CC(OP(=O)(N1CC1)N1CC1)c1ccc([N+](=O)[O-])c(-n2nccn2)c1 (centres unmarked) [compound 2771] | 14000 | 30 | –
58 | CC(OP(=O)(N1CC1)N1CC1)c1ccc([N+](=O)[O-])c(-c2ccccc2C(F)(F)F)c1 (centres unmarked) [compound 2799] | 37000 | 2300 | –
